From ChEMBL document CHEMBL5620357, “Synthesis and anti-inflammatory activity evaluation of NO-releasing furoxan/1,2,4-triazole hybrid derivatives” (Eur J Med Chem, 2023)
Activity calls are given as the source filed them. The rule behind the calls is not given here.

Key:
Mus musculus [1] = assay: Anti-inflammatory activity against carrageenan-induced paw edema in ICR mouse model assessed as reduction in IL-6 level in serum at 10 mg/kg, po measured after 5 hrs by ELISA relative to control; type: functional
Mus musculus [2] = assay: Anti-inflammatory activity against carrageenan-induced paw edema in ICR mouse model assessed as reduction in TNF-alpha level in serum at 10 mg/kg, po measured after 5 hrs by ELISA relative to control; type: functional
Mus musculus [3] = assay: Anti-inflammatory activity against carrageenan-induced hind paw edema mouse model assessed as reduction in cellular infiltration in connective tissue at 10 mg/kg, po; type: functional, organism-based
Mus musculus [4] = assay: Anti-inflammatory activity against carrageenan-induced hind paw edema mouse model assessed as decrease in COX-2 expression in connective tissue at 10 mg/kg, po; type: functional, organism-based
[5] = Gastric ulcerogenic activity in mouse assessed as mucosal erosion and inflammatory cellular infiltration at 2.5 to 10 mg/kg, po by hematoxylin and eosin staining based assay; type: toxicity, organism-based; details: in vivo, dose 2.5-10 mg/kg
RAW264.7 = assay: cells; details: Mus musculus, RAW264.7, 24 h
Description: Anti-inflammatory activity against mouse RAW264.7 cells assessed as inhibition of LPS-induced NO production measured after 24 hrs incubation by Griess analysis

[6] = Cytotoxicity against mouse RAW264.7 cells assessed as cell viability at 50 uM measured after 24 hrs by MTT assay; type: toxicity, cell-based; details: read-out: Activity
[7] = Cytotoxicity against mouse RAW264.7 cells assessed as maximal safe dose measured after 24 hrs by MTT assay; type: toxicity, cell-based; details: read-out: MTD

Row | Structure (SMILES) | IC50 (RAW264.7) [µM] | viability at 24 h, 50 µM [6] [%] | MNTC at 24 h [7] [µg/mL] | further results
1 | COc1ccc2c(c1)c(CC(=O)O)c(C)n2C(=O)c1ccc(Cl)cc1 [INDOMETHACIN] | 56.8 |  |  | inhibition in vivo at 10 mg/kg (Mus musculus [1]): 44%; inhibition in vivo at 10 mg/kg (Mus musculus [2]): 29.8%; Activity (Mus musculus [3]): Active; Activity (Mus musculus [4]): Active; Activity [5]: Toxic
2 | N#Cc1ccc(-n2nc(C(=O)OCc3c(-c4ccccc4)no[n+]3[O-])nc2CCl)cc1 |  | > 95 | ~20 | 
3 | O=C(OCc1c(-c2ccccc2)no[n+]1[O-])c1nc(CCl)n(-c2ccc(F)cc2)n1 |  | > 95 | ~20 | 
4 | O=C(OCc1c(-c2ccccc2)no[n+]1[O-])c1nc(CCl)n(-c2cccc(F)c2)n1 |  | > 95 | ~20 | 
5 | O=C(OCc1c(-c2ccccc2)no[n+]1[O-])c1nc(CCl)n(-c2ccc(C(F)(F)F)cc2)n1 |  | > 95 | ~20 | 
6 | O=C(OCc1c(-c2ccccc2)no[n+]1[O-])c1nc(CCl)n(-c2cccc(C(F)(F)F)c2)n1 |  | > 95 | ~20 | Activity [5]: Non-Toxic
7 | COc1ccc(-n2nc(C(=O)OCc3c(-c4ccccc4)no[n+]3[O-])nc2CCl)cc1 |  | > 95 | ~20 | 
8 | O=C(OCc1c(-c2ccccc2)no[n+]1[O-])c1nc(CCl)n(-c2ccccc2F)n1 | 14.6 | > 95 | ~20 | 
9 | O=C(OCc1c(-c2ccccc2)no[n+]1[O-])c1nc(CCl)n(-c2ccccc2C(F)(F)F)n1 | 13.8 | > 95 | ~20 | 
10 | O=C(OCc1c(-c2ccccc2)no[n+]1[O-])c1nc(CCl)n(-c2ccccc2)n1 |  | > 95 | ~20 | 
11 | Cc1ccc(-n2nc(C(=O)OCc3c(-c4ccccc4)no[n+]3[O-])nc2CCl)cc1 |  | > 95 | ~20 | 
12 | [O-][n+]1ccno1 | 50 |  |  | 
13 | Cc1cccc(-n2nc(C(=O)OCc3c(-c4ccccc4)no[n+]3[O-])nc2CCl)c1 | 6.1 | > 95 | ~20 | 
